Like-named read-outs stand apart in the source and are kept apart here.
Experiments:
[1] = system: hu EOL-1 leukemia; conditions: for effect on tumour growth (tumour volume) relative to vehicle: s.c. EOL-1 tumours in NSG mice, therapy from day 10 to day 21
Experimental: The test compound (Example 222) was dissolved in DMSO (5% final concentration) and further solubilised in 0.5% Tween 80 in 1% methylcellulose. The resulting suspension was warmed for 10 minutes to 37° C. in an ultrasound water bath to obtain a homogeneous formulation for oral administration. At day 0, 24 male NSG mice received a s.c. inoculum of 10^7 EOL-1 cells taken from in vitro culture and mixed with 50% matrigel. At day 10 tumours were palpable, mice were randomized into three treatment groups and therapy initiated. The test compound (Example 222) and the vehicle were administered orally (p.o.) once daily until the end of the experiment. Cyclophosphamide was administered only once intraperitoneally (i.p.).

[2] = system: HSB-2 cells; test: Inhibition of HSB-2 leukemic cell line proliferation (WST-1); type: cell-based, human; conditions: Homo sapiens, HSB2, 48 h, cytotoxicity on HSB-2 cells, two days incubation, WST-1 read-out
Procedure, shortened: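 HSB-2 human ALL cells, 50000/well in RPMI-1640 + 10% FCS, exposed to compounds 2 days at 37 °C, then WST-1 2 h, OD 450 nm. Proliferation scaled between untreated (max) and Triton X100 (min) controls; IC50 from ≥4-point curves, each point mean of ≥2 experiments.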

[3] = system: LNCaP cells; test: Inhibition of LNCaP prostate carcinoma cell line proliferation (WST-1); type: cell-based; conditions: Homo sapiens, 48 h; cytotoxicity on LNCaP cells, two days incubation, WST-1 read-out
Experimental: LNCaP cell line, a prostate carcinoma cell line, was grown in RPMI-1640 medium (Lonza, Belgium) supplemented with 10% fetal calf serum (Hyclone, US) and antibiotics. Exponential growing phase cells were seed in flat bottom 96-well microplates (TTP, Switzerland) at 10000 cells per well in 200 μl of medium. The day after, 20 μl of compounds (in different concentrations) were added and incubated for two days at 37° C., 5% CO2. After incubation, 100 μl of supernatant were removed and 10 μl of WST-1 (Roche, Switzerland) were added. After 2 hour incubation at 37° C., 5% CO2, optical densities were measured at 450 nm. Proliferation is calculated with respect of control points (no compound and treatment with Triton X100 to have maximum and minimum proliferation data). The IC50 was determined from a graph with at least four points, each derived from the mean of at least 2 experiments. […] The results are shown in Table 3 for a number of compounds.

[4] = system: HL-60 cells; test: Inhibition of HL-60 leukemic cell line proliferation (WST-1); type: cell-based, human; conditions: Homo sapiens, 48 h; cytotoxicity on HL-60 cells, two days incubation, WST-1 read-out
Procedure, shortened: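 HL-60 cells, 50000/well, exposed to compounds for two days at 37 °C, then 2 h WST-1 with OD at 450 nm. Proliferation scaled between untreated and Triton X100 controls; IC50 from at least four points, each a mean of ≥2 experiments.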

[5] = EOL-1 xenograft in NSG mice, Example 222 p.o. once daily, cyclophosphamide once i.p.
[6] = Example 222 p.o. once daily, cyclophosphamide once i.p.

| SMILES | IC50 [2] | IC50 [3] | IC50 [4] | further results |
| --- | --- | --- | --- | --- |
| O=P1(N(CCCl)CCCl)NCCCO1 (stereo not shown) [Cyclophosphamide, reference compound] | – | – | – | body weight loss [1, 5]: 6%; tolerability [1, 5]: well tolerated; effect on tumour growth (tumour volume) relative to vehicle [1, 6]: highly significant (p<0.05) inhibition of tumour growth |
| Nc1nc(N2CCN(C(=O)COc3ccc(Cl)cc3)CC2)c2nc(-c3cccnc3)sc2n1 [Example 121a, 5-amino-7-[4-(4-chlorophenoxyacetyl)piperazin-1-yl]-2-(pyridine-3-yl)thiazolo[5,4-d]pyrimidine] | 200 nM | 48000 nM | 230 nM | – |
| Cc1cccc(NC(=O)N2CCN(c3nc(N)nc4sc(-c5ccccc5)nc34)CC2)c1 [Example 220, 4-(5-amino-2-phenylthiazolo[5,4-d]pyrimidin-7-yl)-N-m-tolylpiperazine-1-carboxamide] | 770 nM | 11200 nM | 920 nM | – |
| Cc1ccc(NC(=O)N2CCN(c3nc(N)nc4sc(-c5cccnc5)nc34)CC2)cc1 [Example 222, 4-(5-amino-2-(pyridin-3-yl)thiazolo[5,4-d]pyrimidin-7-yl)-N-p-tolylpiperazine-1-carboxamide] | 50 nM | 2870 nM | 50 nM | behavioural changes or deaths ([1]; EOL-1 xenograft in NSG mice, Example 222 p.o. once daily): did not lead to any behavioural changes or deaths; antileukemic activity ([1]; EOL-1 xenograft model, conclusion): significant antileukemic activity; body weight loss ([1]; mouse, in vivo): 11%; tolerability ([1]; mouse, in vivo): well tolerated; effect on tumour growth (tumour volume) relative to vehicle [1, 6]: moderate but significant (p<0.05) delay of tumour growth |
| COc1ccc(OCC(=O)N2CCN(c3nc(N)nc4sc(-c5cccnc5)nc34)CC2)cc1 [Example 271, 1-(4-(5-amino-2-(pyridin-3-yl)thiazolo[5,4-d]pyrimidin-7-yl)piperazin-1-yl)-2-(4-methoxyphenoxy)ethanone] | 60 nM | > 100000 nM | 100 nM | – |
| CC(C)(Oc1ccc(Cl)cc1)C(=O)N1CCN(c2nc(N)nc3sc(-c4cccnc4)nc23)CC1 [Example 274, 1-(4-(5-amino-2-(pyridin-3-yl)thiazolo[5,4-d]pyrimidin-7-yl)piperazin-1-yl)-2-(4-chlorophenoxy)-2-methylpropan-1-one] | – | 18200 nM | – | – |
| Cc1cccc(OCC(=O)N2CCN(c3nc(N)nc4sc(-c5cccnc5)nc34)CC2)c1 [Example 275, 1-(4-(5-amino-2-(pyridin-3-yl)thiazolo[5,4-d]pyrimidin-7-yl)piperazin-1-yl)-2-(m-tolyloxy)ethanone] | 70 nM | 1090 nM | 50 nM | – |
| Cc1cccc(NC(=O)N2CCN(c3nc(N)nc4sc(-c5cccnc5)nc34)CC2)c1 [Example 276, 4-(5-amino-2-(pyridin-3-yl)thiazolo[5,4-d]pyrimidin-7-yl)-N-m-tolylpiperazine-1-carboxamide] | 50 nM | 3050 nM | 60 nM | – |
| CCOc1nc(N)nc2sc(-c3ccc(F)cc3)cc12 [Example 363, 4-ethoxy-6-(4-fluorophenyl)thieno[2,3-d]pyrimidin-2-amine] | – | – | – | melting point: 142 °C |
| Nc1nc(N2CCN(C(=O)Nc3ccccc3)CC2)c2nc(-c3cccnc3)sc2n1 [Example 440, 4-(5-amino-2-(pyridin-3-yl)thiazolo[5,4-d]pyrimidin-7-yl)-N-phenylpiperazine-1-carboxamide] | 58 nM | 17100 nM | 64 nM | – |

— patent US9573966B2, “Anti-cancer activity of novel bicyclic heterocycles” (Katholieke Universiteit Leuven, K.U.Leuven R&D, priority 2010, dated 2017)
